Measurements taken from PubChem BioAssay (NCI).
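Values below derive from 48-hour exposures of cells grown in 96-well plates, with endpoints linearly interpolated between the two concentrations bracketing the appropriate inhibition level. TGI denotes the concentration required for complete inhibition of growth.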

How the values were obtained:
Assay in all cases: inhibition of tumour cell growth, NCI panel, 48 h
HOP-18 NSCLC = system: HOP-18 NSCLC
ACHN renal = system: ACHN renal
HCT-116 colon = system: HCT-116 colon
786-0 renal = system: 786-0 renal
LXFL 529 NSCLC = system: LXFL 529 NSCLC
IGROV1 ovarian = system: IGROV1 ovarian
HL-60(TB) leukemia = system: HL-60(TB) leukemia
RPMI-8226 leukemia = system: RPMI-8226 leukemia
MALME-3M melanoma = system: MALME-3M melanoma
HT29 colon = system: HT29 colon
M19-MEL melanoma = system: M19-MEL melanoma
K-562 leukemia = system: K-562 leukemia
OVCAR-5 ovarian = system: OVCAR-5 ovarian
DLD-1 colon = system: DLD-1 colon
CCRF-CEM leukemia = system: CCRF-CEM leukemia
TK-10 renal = system: TK-10 renal
LOX IMVI melanoma = system: LOX IMVI melanoma
SN12C renal = system: SN12C renal
HOP-62 NSCLC = system: HOP-62 NSCLC
M14 melanoma = system: M14 melanoma
A498 renal = system: A498 renal
SNB-78 CNS = system: SNB-78 CNS
HCC-2998 colon = system: HCC-2998 colon
SK-OV-3 ovarian = system: SK-OV-3 ovarian
DMS 114 small cell lung = system: DMS 114 small cell lung
NCI-H522 lung = system: NCI-H522 lung
HOP-92 NSCLC = system: HOP-92 NSCLC
SNB-19 CNS = system: SNB-19 CNS
DMS 273 small cell lung = system: DMS 273 small cell lung
SK-MEL-28 melanoma = system: SK-MEL-28 melanoma
SF-539 CNS = system: SF-539 CNS
SK-MEL-2 melanoma = system: SK-MEL-2 melanoma
UACC-62 melanoma = system: UACC-62 melanoma
A549 NSCLC = system: A549 NSCLC
KM20L2 colon = system: KM20L2 colon
SK-MEL-5 melanoma = system: SK-MEL-5 melanoma
CAKI-1 renal = system: CAKI-1 renal
OVCAR-8 ovarian = system: OVCAR-8 ovarian
SF-295 CNS = system: SF-295 CNS
UO-31 renal = system: UO-31 renal
U251 CNS = system: U251 CNS
OVCAR-3 ovarian = system: OVCAR-3 ovarian
KM12 colon = system: KM12 colon
NCI-H23 lung = system: NCI-H23 lung
SW-620 colon = system: SW-620 colon
SF-268 CNS = system: SF-268 CNS
HCT-15 colon = system: HCT-15 colon
NCI-H460 lung = system: NCI-H460 lung
UACC-257 melanoma = system: UACC-257 melanoma
SNB-75 CNS = system: SNB-75 CNS
EKVX NSCLC = system: EKVX NSCLC
COLO 205 colon = system: COLO 205 colon
NCI-H226 lung = system: NCI-H226 lung
MOLT-4 leukemia = system: MOLT-4 leukemia
OVCAR-4 ovarian = system: OVCAR-4 ovarian
RXF 393 renal = system: RXF 393 renal
XF 498 CNS = system: XF 498 CNS

CCC(=O)OC[n+]1ccc2c(C)c3[nH]c4ccc(OC)cc4c3c(C)c2c1
TGI (HOP-18 NSCLC): 0.131 µM
TGI (ACHN renal): 3.76 µM
TGI (HCT-116 colon): 1.13 µM
TGI (786-0 renal): 1.73 µM
TGI (LXFL 529 NSCLC): 1.57 µM
TGI (IGROV1 ovarian): 1.03 µM
TGI (HL-60(TB) leukemia): 8.38 µM
TGI (RPMI-8226 leukemia): 2.54 µM
TGI (MALME-3M melanoma): 2.71 µM
TGI (HT29 colon): 1.57 µM
TGI (M19-MEL melanoma): 1.68 µM
TGI (K-562 leukemia): 23.9 µM
TGI (OVCAR-5 ovarian): 1.75 µM
TGI (DLD-1 colon): 1.26 µM
TGI (CCRF-CEM leukemia): > 100 µM
TGI (TK-10 renal): 2.92 µM

O=C(CP(=O)(O)O)c1cccs1
TGI (LOX IMVI melanoma): > 100 µM
TGI (HOP-18 NSCLC): > 100 µM
TGI (SN12C renal): > 100 µM
TGI (HOP-62 NSCLC): > 100 µM
TGI (M14 melanoma): > 100 µM
TGI (A498 renal): > 100 µM
TGI (ACHN renal): > 100 µM
TGI (SNB-78 CNS): > 100 µM
TGI (HCC-2998 colon): > 100 µM
TGI (HCT-116 colon): > 100 µM
TGI (SK-OV-3 ovarian): > 100 µM
TGI (DMS 114 small cell lung): > 100 µM
TGI (NCI-H522 lung): > 100 µM
TGI (HOP-92 NSCLC): > 100 µM
TGI (SNB-19 CNS): > 100 µM
TGI (DMS 273 small cell lung): > 100 µM
TGI (SK-MEL-28 melanoma): > 100 µM
TGI (SF-539 CNS): > 100 µM
TGI (SK-MEL-2 melanoma): > 100 µM
TGI (786-0 renal): > 100 µM
TGI (LXFL 529 NSCLC): > 100 µM
TGI (UACC-62 melanoma): > 100 µM
TGI (A549 NSCLC): > 100 µM
TGI (KM20L2 colon): > 100 µM
TGI (SK-MEL-5 melanoma): > 100 µM
TGI (CAKI-1 renal): > 100 µM
TGI (OVCAR-8 ovarian): > 100 µM
TGI (SF-295 CNS): > 100 µM
TGI (IGROV1 ovarian): > 100 µM
TGI (HL-60(TB) leukemia): > 100 µM
TGI (UO-31 renal): > 100 µM
TGI (RPMI-8226 leukemia): > 100 µM
TGI (MALME-3M melanoma): > 100 µM
TGI (HT29 colon): > 100 µM
TGI (U251 CNS): > 100 µM
TGI (M19-MEL melanoma): > 100 µM
TGI (K-562 leukemia): > 100 µM
TGI (OVCAR-3 ovarian): > 100 µM
TGI (OVCAR-5 ovarian): > 100 µM
TGI (KM12 colon): > 100 µM
TGI (NCI-H23 lung): > 100 µM
TGI (SW-620 colon): > 100 µM
TGI (DLD-1 colon): > 100 µM
TGI (CCRF-CEM leukemia): > 100 µM
TGI (SF-268 CNS): > 100 µM
TGI (HCT-15 colon): > 100 µM
TGI (NCI-H460 lung): > 100 µM
TGI (TK-10 renal): > 100 µM
TGI (UACC-257 melanoma): > 100 µM
TGI (SNB-75 CNS): > 100 µM
TGI (EKVX NSCLC): > 100 µM
TGI (COLO 205 colon): > 100 µM

O=Cc1cn(C(=O)c2ccccc2)c2ccccc12
TGI (HOP-62 NSCLC): > 100 µM
TGI (M14 melanoma): > 100 µM
TGI (NCI-H226 lung): > 100 µM
TGI (A498 renal): > 100 µM
TGI (MOLT-4 leukemia): > 100 µM
TGI (OVCAR-4 ovarian): > 100 µM
TGI (ACHN renal): > 100 µM
TGI (RXF 393 renal): > 100 µM
TGI (SNB-78 CNS): > 100 µM
TGI (HCC-2998 colon): > 100 µM
TGI (HCT-116 colon): > 100 µM
TGI (SK-OV-3 ovarian): > 100 µM
TGI (DMS 114 small cell lung): > 100 µM
TGI (DMS 273 small cell lung): > 100 µM
TGI (SK-MEL-28 melanoma): > 100 µM
TGI (SF-539 CNS): > 100 µM
TGI (SK-MEL-2 melanoma): > 100 µM
TGI (786-0 renal): > 100 µM
TGI (LXFL 529 NSCLC): > 100 µM
TGI (UACC-62 melanoma): > 100 µM
TGI (A549 NSCLC): > 100 µM
TGI (KM20L2 colon): > 100 µM
TGI (SK-MEL-5 melanoma): > 100 µM
TGI (CAKI-1 renal): > 100 µM
TGI (OVCAR-8 ovarian): > 100 µM
TGI (SF-295 CNS): > 100 µM
TGI (IGROV1 ovarian): > 100 µM
TGI (HL-60(TB) leukemia): 92.6 µM
TGI (UO-31 renal): > 100 µM
TGI (RPMI-8226 leukemia): > 100 µM
TGI (MALME-3M melanoma): > 100 µM
TGI (HT29 colon): > 100 µM
TGI (U251 CNS): > 100 µM
TGI (M19-MEL melanoma): > 100 µM
TGI (K-562 leukemia): > 100 µM
TGI (OVCAR-3 ovarian): > 100 µM
TGI (OVCAR-5 ovarian): > 100 µM
TGI (KM12 colon): > 100 µM
TGI (NCI-H23 lung): > 100 µM
TGI (SW-620 colon): > 100 µM
TGI (DLD-1 colon): > 100 µM
TGI (CCRF-CEM leukemia): > 100 µM
TGI (HCT-15 colon): > 100 µM
TGI (NCI-H460 lung): > 100 µM
TGI (TK-10 renal): > 100 µM
TGI (UACC-257 melanoma): > 100 µM
TGI (SNB-75 CNS): > 100 µM
TGI (EKVX NSCLC): > 100 µM

CCC12C[N+]3([O-])CCc4c([nH]c5ccccc45)C(C(=O)OC)(c4cc5c(cc4OC)N(C)C4C(O)(C(=O)OC)C(OC(C)=O)C6(CC)C=CCN7CCC54C76)CC(C3)C1O2 (stereo unspecified)
TGI (LOX IMVI melanoma): 51.7 µM
TGI (HOP-18 NSCLC): 47.5 µM
TGI (SN12C renal): 24.5 µM
TGI (HOP-62 NSCLC): > 100 µM
TGI (M14 melanoma): 17.8 µM
TGI (A498 renal): 18 µM
TGI (MOLT-4 leukemia): 3.44 µM
TGI (OVCAR-4 ovarian): 45.9 µM
TGI (ACHN renal): 31.9 µM
TGI (RXF 393 renal): 4.65 µM
TGI (SNB-78 CNS): 4.65 µM
TGI (HCC-2998 colon): > 100 µM
TGI (HCT-116 colon): 11.6 µM
TGI (SK-OV-3 ovarian): 7.34 µM
TGI (DMS 114 small cell lung): 4.28 µM
TGI (XF 498 CNS): 15.3 µM
TGI (NCI-H522 lung): 0.282 µM
TGI (HOP-92 NSCLC): 21.3 µM
TGI (SNB-19 CNS): 11.9 µM
TGI (DMS 273 small cell lung): 12.2 µM
TGI (SK-MEL-28 melanoma): 0.959 µM
TGI (SF-539 CNS): 0.821 µM
TGI (SK-MEL-2 melanoma): 0.649 µM
TGI (786-0 renal): 7.95 µM
TGI (LXFL 529 NSCLC): 24.6 µM
TGI (UACC-62 melanoma): 16.2 µM
TGI (A549 NSCLC): 29.9 µM
TGI (KM20L2 colon): 1.52 µM
TGI (SK-MEL-5 melanoma): 12 µM
TGI (CAKI-1 renal): 30.1 µM
TGI (OVCAR-8 ovarian): 54.1 µM
TGI (SF-295 CNS): 1.86 µM
TGI (IGROV1 ovarian): 14.9 µM
TGI (UO-31 renal): 14.4 µM
TGI (RPMI-8226 leukemia): 1.43 µM
TGI (MALME-3M melanoma): 22.9 µM
TGI (HT29 colon): 17.2 µM
TGI (U251 CNS): 86.1 µM
TGI (M19-MEL melanoma): 16 µM
TGI (K-562 leukemia): 6.28 µM
TGI (OVCAR-3 ovarian): 1.3 µM
TGI (OVCAR-5 ovarian): 33.3 µM
TGI (KM12 colon): 15.9 µM
TGI (NCI-H23 lung): 8.49 µM
TGI (SW-620 colon): 20.4 µM
TGI (DLD-1 colon): 30.9 µM
TGI (CCRF-CEM leukemia): 6.87 µM
TGI (SF-268 CNS): 28.8 µM
TGI (HCT-15 colon): 24.8 µM
TGI (NCI-H460 lung): 43.5 µM
TGI (TK-10 renal): 26.8 µM
TGI (UACC-257 melanoma): 35.1 µM
TGI (SNB-75 CNS): 0.952 µM
TGI (EKVX NSCLC): 18 µM
TGI (COLO 205 colon): 4.44 µM
